In patent US20130053347A1, “PRO-DRUGS OF AMARYLLIDACEAE ISOCARBOSTYRIL PRODUCTS AND THEIR USE AGAINST BRAIN TUMORS” (Universite Libre de Bruxelles, priority 2010, published 2013):

Tests used:
[1] = tested on: human NSCLC A549 cells grafted into the lungs of nude mice; test: NSCLC model, cells grafted into the lungs, survival; format: in vivo; conditions: A549 in lungs; Taxol 20 mg/kg, Narciclasine 1 mg/kg once per week during 5 consecutive weeks
Description: (§1) FIG. 6: anti-tumor effects of Narciclasine versus taxol in human NSCLC (non small cell lung carcinoma) models. The left panel illustrates the lungs of mice bearing lung tumor (tumor tissue is the white nodular one; pink part is the residual normal lung tissue) and hematoxilin eosin staining of the lung tumor (middle) and the brain metastasis that developed into the brain of nude mice after the graft of A549 human NSCLC cells into the lung (lower panel). Anti-tumor effects were evaluated in terms of animal survival when cells are grafted into the lungs (upper right graph) or directly into the brain (right lower panel). Taxol (dose: 20 mg/kg) and Narciclasine (dose: 1 mg/kg) were administered once per week during 5 consecutive weeks.
(§2) We tested also the anti-cancer effects of Narciclasine in non small cell lung carcinoma models (NSCLC). When human NSCLC A549 cells are grafted into the lungs of nude mice, those later develop lung tumors leading after to liver and brain metastases in 80% of the cases (Mathieu A et al, Cancer 2004).

[2] = tested on: A549 cells grafted directly into the brain of nude mice; test: NSCLC cells grafted into the brain, survival; format: in vivo, human; conditions: A549 in brain; Taxol 20 mg/kg, Narciclasine 1 mg/kg once per week during 5 consecutive weeks
Description: as §1, §2

[3] = cited from earlier work
cancer cells = conditions: cited from earlier work
[4] = tested on: Hs683 human glioblastoma cells grafted into the brain of nude mice; test: human glioblastoma orthotopic model, survival; format: in vivo; conditions: 1 mg/kg once or twice per week during 5 consecutive weeks, intravenous or oral; two glioblastoma models (Hs683; GL-19 in FIG. 5)
Description: FIG. 5: anti-tumor effects of Narciclasine versus temozolomide in human primary brain tumor models. A and B: hematoxilin eosin staining of the brain tumors that developed into the brain of nude mice after intracranial graft of Hs683 and GL-19 human glioblastoma cells (NB: normal brain). Anti-tumor effects were evaluated in terms of animal survival in C and D. TMZ: temozolomide; schedule of administration is mentioned between brackets (“aXb” meaning “a” administrations per week during “b” weeks).
We evaluated the anti-cancer effects of Narciclasine at non toxic dose in two human glioblastoma (primary brain tumors) models (Hs683-model) that we grafted orthotopically directly into the brain of nude mice. […] The therapeutic schedule used here is even lower (one or two injections per week instead of 5 per week) and the administration route was intravenous or oral. […] The few promising NCI results have been obtained at doses higher than 1 mg/kg administered intraperitoneally or subcutaneously.

[5] = tested on: VM-48 human brain metastatic melanoma cells grafted into the brain of nude mice; test: melanoma brain metastasis model, survival; format: in vivo; conditions: VM-48 in brain; intravenously 1 mg/kg twice a week during 3 consecutive weeks
mice = conditions: cited from earlier work
[6] = tested on: human melanoma VM-21 cells grafted subcutaneously; test: subcutaneous melanoma model, survival; format: in vivo; conditions: VM-21 subcutaneous, nude mice; Narciclasine per os
Description: FIG. 7: anti-tumor effects of Narciclasine in human melanoma models. The left panel illustrates typical hematoxilin eosin staining of subcutaneous tumor and lung metastasis developed when VM-21 human melanoma cells are grafted subcutaneously in nude mice and their corresponding survival analysis. Narciclasine was administered per os while dacarbazine was administered intra-peritoneally. Doses and schedules appear on the graphs (ai X bw meaning “a” administrations per week during “b” weeks). The right panel illustrates typical hematoxilin eosin staining of human melanoma brain tumor developed into the brain when VM-48 human brain metastatic melanoma cells are grafted into the brain of nude mice and their corresponding survival analysis. Narciclasine and temozolomide (TMZ) were administered per os. Doses and schedules appear on the graphs (same legend than left panel).
Similarly, we grafted subcutaneously human melanoma VM-21 cells. This graft leads to tumor formation and further lung metastases as illustrated in FIG. 7. […] VM-48 cells have been isolated from a human brain metastasis of melanoma. We grafted those cells in their original environment, i.e. the brain to mimic human melanoma brain metastasis (FIG. 7).

SMILES | survival of the animals [1] | survival benefits [2] | plasmatic concentrations ([3]; 5 mg/kg dose, for few hours only) | oral bioavailability ([3]; mouse, in vivo, po) | IC50 (cancer cells) | therapeutic benefit in terms of survival [4] | animal survival [5] | maximal dose that can be administered without being toxic (mice; mice) | safe chronical dose (mice; mice) | toxicity (mice; rodents, 1 mg/kg 5 times per week during three weeks at least) | survival benefit [6]
CC(=O)O[C@H]1C(=O)[C@@]2(C)[C@H]([C@H](OC(=O)c3ccccc3)[C@]3(O)C[C@H](OC(=O)[C@H](O)[C@@H](NC(=O)c4ccccc4)c4ccccc4)C(C)=C1C3(C)C)[C@]1(OC(C)=O)CO[C@@H]1C[C@@H]2O [taxol] | did significantly | became inefficient | – | – | – | – | – | – | – | – | –
O=C1N[C@@H]2C(=C[C@H](O)[C@@H](O)[C@H]2O)c2cc3c(c(O)c21)OCO3 [Narciclasine] | did not bring any increase in the survival | highly and significantly effective | > 50 nM | 32% | 50 nM | significant and comparable therapeutic benefits | significant increase in terms of animal survival | around 1 mg/kg | 1 mg/kg | without any toxicity | could not bring any survival benefit
